Experiment [1] concerns ketose 3-epimerase. Description: Substrate specificity of ketose 3-epimerase (epimer content by HPLC). To be noted: for Epimer content in the reaction products: 1% (w/v) substrate, pH 8.0, 1 mM MnCl2, 45° C., 17 hours. Format: biochemical, Rhizobium leguminosarum ATCC14480. On the procedure:
By using the purified preparation of the ketose 3-epimerase, obtained by the method in Experiment 2, the substrate specificity of the enzyme was investigated using various D- or L-ketohexoses and D- or L-ketopentoses as substrates. Substrate solutions were prepared by dissolving D-fructose, D-psicose, D-tagatose, D-sorbose, D-xylulose, D-ribulose, L-fructose, L-psicose, L-tagatose, L-sorbose, L-xylulose, or L-ribulose into 20 mM Tris-HCl buffer (pH 8.0) containing 1 mM MnCl2 to give a final concentration of 1% (w/v), respectively. Then, each substrate solution was further admixed with 2 units/g-substrate or 20 units/g-substrate, on a dry solid basis, as D-psicose 3-epimerase activity of the purified preparation of the ketose 3-epimerase, obtained by the method in Experiment 2; and followed by the enzyme reaction at 45° C. for 17 hours. After stopping the reaction by keeping the reaction mixture at 100° C. for 10 min, the content of epimer formed from each substrate was measured using high performance liquid chromatography (hereinafter, abbreviated as “HPLC”). HPLC was carried out under the following conditions: • Column: MCI GEL CK08EC, commercialized by Mitsubishi Chemical Corporation, Tokyo, Japan; • Eluent: water; • Column temperature: 75° C. • Flow rate: 0.6 ml/min • Detection: RID-10A, a differential refractometer commercialized by Shimadzu Corporation, Kyoto, Japan;

Experiment [2] relates to ketose 3-epimerase. Format: biochemical, Rhizobium leguminosarum ATCC14480.
Setting [3] is: 1 mM metal salt, substrate solution without 1 mM MnCl2, None = 100.
Where [4] appears, read: 1 mM, in comparison with the case without metal ions.
Where [5] appears, read: 1 mM metal salt, substrate solution without 1 mM MnCl2, None = 100, D-fructose determined by HPLC.

SMILES strings stand for the structures. Like-named read-outs stand apart in the source and are kept apart here.

Take `O=C(CO)[C@H](O)[C@@H](O)[C@@H](O)CO` [L-Fructose, L-fructose]: the “Epimer content in the reaction products” value is 0% in the experiment with ketose 3-epimerase [1] (enzyme 2 units/g-substrate) and 1.4% with ketose 3-epimerase [1] (enzyme 20 units/g-substrate).
Regarding `[Cl][Cu][Cl]` [CuCl2], the Relative activity in the experiment on ketose 3-epimerase [2] (setting [3]) turned out to be 60%. Besides, the “Effect on the ketose 3-epimerase activity (in words)” value (shortened to “Effect”) in the experiment with ketose 3-epimerase [2] (setting [4]) is on record as “slightly inhibited”.
For `O=C(CO)[C@@H](O)[C@@H](O)CO` [L-Ribulose, L-ribulose], the “Action of the ketose 3-epimerase on the substrate (in words)” value (shortened to “Action of the ketose 3-epimerase”) with ketose 3-epimerase [1] is recorded as “efficiently catalyzed”. In addition, the “Epimer content in the reaction products” value in the experiment with ketose 3-epimerase [1] (enzyme 2 units/g-substrate) is listed as 19.2%; in the experiment on ketose 3-epimerase [1] (enzyme 20 units/g-substrate), 58.4%.
For `[Cl-].[Cl-].[Mg+2]` [MgCl2], the Relative activity is listed as 141% with ketose 3-epimerase [2] (setting [3]) and “about 140%” in the experiment on ketose 3-epimerase [2] (1 mM metal salt, substrate solution without 1 mM MnCl2, None = 100, listed as Mg^2+). Also, in the experiment with ketose 3-epimerase [2] (setting [4]), the “Effect” value was “Activated”.
On to `[Cl-].[Cl-].[Co+2]` [CoCl2], for which, in the experiment on ketose 3-epimerase [2], the “Effect” value was “not activated” and the Relative activity stood at 101%.
In the case of `[Cl-].[Cl-].[Zn+2]` [ZnCl2], in the experiment on ketose 3-epimerase [2] (setting [3]), the Relative activity is recorded as 13%. For the same compound, in the experiment with ketose 3-epimerase [2] (setting [4]), the “Effect” value is listed as “remarkable inhibited”.
For the compound `[Cl][Hg][Cl]` [HgCl2, mercury chloride], the Relative activity in the experiment with ketose 3-epimerase [2] (setting [5]) came to 35%. Further, the “Effect” value with ketose 3-epimerase [2] (setting [4]) is listed as “remarkable inhibited”.
Turning to `O=C(CO)[C@H](O)[C@H](O)[C@H](O)CO` [D-Psicose, D-psicose], the “Action of the ketose 3-epimerase” value in the experiment on ketose 3-epimerase [1] is recorded as “most efficiently catalyzes”. The “Epimer content in the reaction products” value with ketose 3-epimerase [1] (enzyme 2 units/g-substrate) is 39.4%; with ketose 3-epimerase [1] (enzyme 2 units/g-substrate, listed as D-psicose) it was “about 39%”; with ketose 3-epimerase [1] (enzyme 20 units/g-substrate), 74.1%.
Regarding `O=C(CO)[C@@H](O)[C@H](O)[C@H](O)CO` [D-Fructose, D-fructose], in the experiment on ketose 3-epimerase [1], the “Action of the ketose 3-epimerase” value was “most efficiently catalyzes”. For the same compound, the “Epimer content in the reaction products” value in the experiment on ketose 3-epimerase [1] (enzyme 2 units/g-substrate) is on record as 17.7%; in the experiment with ketose 3-epimerase [1] (enzyme 2 units/g-substrate, listed as D-fructose), “about 18%”; with ketose 3-epimerase [1] (enzyme 20 units/g-substrate) it was 25.8%.
As to `[Cl][Mn][Cl]` [MnCl2], the Relative activity in the experiment on ketose 3-epimerase [2] (setting [3]) was 283%; in the experiment on ketose 3-epimerase [2] (1 mM metal salt, substrate solution without 1 mM MnCl2, None = 100, listed as Mn^2+), “about 280%”. Moreover, in the experiment with ketose 3-epimerase [2] (setting [4]), the “Effect” value was “Activated”.
With `O=C(CO)[C@@H](O)[C@H](O)[C@@H](O)CO` [L-Sorbose, L-sorbose], the “Epimer content in the reaction products” value with ketose 3-epimerase [1] (enzyme 2 units/g-substrate) is 0%; with ketose 3-epimerase [1] (enzyme 20 units/g-substrate), 6.2%.
With `O=C(CO)[C@H](O)[C@@H](O)CO` [L-Xylulose, L-xylulose], the “Action of the ketose 3-epimerase” value with ketose 3-epimerase [1] was “efficiently catalyzed”. In addition, the figures for the “Epimer content in the reaction products” value in the experiment on ketose 3-epimerase [1] (enzyme 2 units/g-substrate) and with ketose 3-epimerase [1] (enzyme 20 units/g-substrate) were 1.6% and 10.3%, respectively.
For `[Cl][Fe]([Cl])[Cl]` [FeCl3], in the experiment on ketose 3-epimerase [2] (setting [5]), the Relative activity is 64%.
On to `[Cl][Sn][Cl]` [SnCl2], for which the Relative activity in the experiment on ketose 3-epimerase [2] (setting [3]) is given as 114%. For the same compound, the “Effect” value with ketose 3-epimerase [2] (setting [4]) was “slightly activated”.
As for `O=C(CO)[C@@H](O)[C@H](O)CO` [D-Xylulose, D-xylulose], the “Action of the ketose 3-epimerase” value in the experiment on ketose 3-epimerase [1] was “efficiently catalyzed”. For the same compound, the figures for the “Epimer content in the reaction products” value in the experiment on ketose 3-epimerase [1] (enzyme 2 units/g-substrate) and in the experiment with ketose 3-epimerase [1] (enzyme 20 units/g-substrate) were 2.3% and 19.6%, respectively.
For `O=C(CO)[C@H](O)[C@H](O)CO` [D-Ribulose, D-ribulose], in that order: “efficiently catalyzed”, 17.1% and 43.4%.
In the same order, the values of `O=C(CO)[C@@H](O)[C@@H](O)[C@H](O)CO` [D-Tagatose, D-tagatose] are “slightly catalyzed”, 0.6% and 5.3%.
For the compound `[Cl][Ni][Cl]` [NiCl2], the Relative activity in the experiment on ketose 3-epimerase [2] (setting [3]) was 64%. Also, the “Effect” value in the experiment with ketose 3-epimerase [2] (setting [4]) is given as “slightly inhibited”.
Turning to `[Cl-].[Cl-].[Sr+2]` [SrCl2], the Relative activity in the experiment on ketose 3-epimerase [2] (setting [3]) is recorded as 103%. In the experiment on ketose 3-epimerase [2] (setting [4]), the “Effect” value is given as “not activated”.
For `[Cl][Pb][Cl]` [PbCl2], in that order: 69% and “slightly inhibited”.
As to `[Cl][Al]([Cl])[Cl]` [AlCl3], in the experiment with ketose 3-epimerase [2] (setting [3]), the Relative activity is 86%.
As for `O=C(CO)[C@H](O)[C@H](O)[C@@H](O)CO` [L-Tagatose, L-tagatose], the “Epimer content in the reaction products” value in the experiment on ketose 3-epimerase [1] (enzyme 2 units/g-substrate) is recorded as 3.2%; in the experiment on ketose 3-epimerase [1] (enzyme 20 units/g-substrate) it was 26.7%.
`O=C(CO)[C@@H](O)[C@@H](O)[C@@H](O)CO` [L-Psicose, L-psicose]: the entries for the “Epimer content in the reaction products” value in the experiment on ketose 3-epimerase [1] (enzyme 2 units/g-substrate) and with ketose 3-epimerase [1] (enzyme 20 units/g-substrate) were 1.6% and 11.3%, respectively.
As to `[Ba+2].[Cl-].[Cl-]` [BaCl2], the Relative activity in the experiment with ketose 3-epimerase [2] (setting [3]) worked out at 96%.
For `O=C(CO)[C@H](O)[C@@H](O)[C@H](O)CO` [D-Sorbose, D-sorbose], the “Action of the ketose 3-epimerase” value with ketose 3-epimerase [1] is recorded as “slightly catalyzed”. Moreover, the “Epimer content in the reaction products” value with ketose 3-epimerase [1] (enzyme 2 units/g-substrate) amounted to 0%; with ketose 3-epimerase [1] (enzyme 20 units/g-substrate), 0.1%.
Take `[Cl][Fe][Cl]` [FeCl2]: the Relative activity with ketose 3-epimerase [2] (setting [5]) is on record as 67%.
`O=C(O)CN(CCN(CC(=O)O)CC(=O)O)CC(=O)O` [EDTA]: in the experiment on ketose 3-epimerase [2], the “Effect” value is given as “not inhibited” and the Relative activity is reported as 97%.
Turning to `[Ca+2].[Cl-].[Cl-]` [CaCl2], in the experiment on ketose 3-epimerase [2] (setting [3]), the Relative activity came out at 89%.

Source of the values: US20110275138A1, “KETOSE 3-EPIMERASE, ITS PREPARATION AND USES” (KABUSHIKI KAISHA HAYASHIBARA SEIBUTSU KAGAKU KENKYUJO, priority 2005, published 2011).
